Assay results: patent US20260151391A1, “TREATMENT OF MITOCHONDRIAL DISEASES WITH sGC STIMULATORS” (Tisento Therapeutics Inc., priority 2022, published 2026)

Tested on: memory disruption induced by MK-801 in male Long Evans rats
Test: Novel Object Recognition (NOR) test, memory disruption induced by MK-801
Type: in vivo, rat
Details: any dose tested, oral
Method: In the present study, a memory saving model was used. MK-801 (Dizocilpine), an uncompetitive antagonist of the NMDA receptor was used to cause deficit of recognition memory. sGC stimulators were evaluated for their efficacy to prevent memory impairment induced by MK-801.
Adult male Long-Evans rats (275-299 gram at arrival from Envigo, Indianapolis, IN) were used in this study. Rats were placed in the experimental rooms and assigned unique identification numbers (tail marks). Rats were housed 2 per cage in polycarbonate cages with filter tops and acclimated for at least 7 days prior to testing. […]
NOR test was conducted in an open-field arena (40×40 cm) placed in a sound-attenuated room under dimmed lighting. […] All training and testing trials were video-taped and scored by an observer blind to treatments.
On Days 1 and 2, rats were allowed to freely explore the arena (no objects inside) for a 5-minute habituation period. […] Each rat was placed in the arena facing the same direction at the same position, and the time spent actively exploring the objects during a 3-minute training period (T1) was recorded. […] Each rat was placed back into the test arena in the presence of one familiar object and one novel object for 5 minutes, and the time spent exploring both objects was recorded. […]

`Oc1nc(-c2cn3ccnc3c(Cc3cc(F)ccc3F)n2)ncc1F` [Compound I-20, 5-fluoro-2-(8-(2,5-difluorobenzyl)imidazo[1,2-a]pyrazin-6-yl)pyrimidin-4-ol] was tested, and the “obvious side effects in NOR study” value was “None of the rats in this study showed obvious side effects”.
